# Columns and labels:
# Assay in all cases: Test B preemergence/postemergence greenhouse plant response rating 0 to 10
# Settings in all cases: 0 to 10 scale
# [1] = tested on: sugar beet; assay type: in vivo, Beta vulgaris
# Excerpt: (§1) Seeds of barley (Hordeum vulgare), barnyardgrass (Echinochloa crus-galli), bedstraw (Galium aparine), blackgrass (Alopecurus myosuroides), […] (Bromus secalinus), chickweed (Stellaria media), cocklebur (Xanthium pensylvanicum), corn (Zea mays), cotton (Gossypium hirsutum), crabgrass (Digitaria spp.), giant foxtail (Setaria faberii), lambsquarters (Chenopodium album), morningglory (Ipomoea hederacea), rape (Brassica napus), rice (Oryza sativa), sorghum (Sorghum bicolor), soybean (Glycine max), sugar beet (Beta vulgaris), velvetleaf (Abutilon theophrasti), wheat (Triticum aestivum), wild buckwheat (Polygonum convolvulus), and wild oat (Avena fatua) and purple nutsedge. (Cyperus rotundus) tubers were planted and treated preemergence with test chemicals dissolved in a non-phytotoxic solvent. At the same time, these crop and weed species were also treated with postemergence applications of test chemicals. Plants ranged in height from two to eighteen cm (one to four leaf stage) for postemergence treatments. Treated plants and controls were maintained in a greenhouse for twelve to sixteen days, after which all species were compared to controls and visually evaluated. […] A dash (-) response means no test result.
# [2] = tested on: bedstraw; assay type: in vivo, Galium aparine
# Excerpt: as §1
# [3] = tested on: chickweed; assay type: in vivo, Stellaria media
# Excerpt: as §1
# [4] = tested on: wild buckwheat; assay type: in vivo, Polygonum convolvulus
# Excerpt: as §1
# [5] = tested on: barnyardgrass; assay type: in vivo, Echinochloa crus-galli
# Excerpt: as §1
# [6] = tested on: lambsquarters; assay type: in vivo, Chenopodium album
# Excerpt: as §1
# [7] = tested on: crabgrass; assay type: in vivo, Digitaria spp.
# Excerpt: as §1
# [8] = tested on: velvetleaf; assay type: in vivo, Abutilon theophrasti
# Excerpt: as §1
# [9] = tested on: soybean; assay type: in vivo, Glycine max
# Excerpt: as §1
# [10] = tested on: cotton; assay type: in vivo, Gossypium hirsutum
# Excerpt: as §1
# [11] = tested on: barley; assay type: in vivo, Hordeum vulgare
# Excerpt: as §1
# [12] = tested on: sorghum; assay type: in vivo, Sorghum bicolor
# Excerpt: as §1
# [13] = tested on: cheatgrass; assay type: in vivo, Bromus secalinus
# Excerpt: as §1
# [14] = tested on: rape; assay type: in vivo, Brassica napus
# Excerpt: as §1
# [15] = tested on: wheat; assay type: in vivo, Triticum aestivum
# Excerpt: as §1
# [16] = tested on: purple nutsedge; assay type: in vivo, Cyperus rotundus
# Excerpt: as §1
# [17] = tested on: wild oat; assay type: in vivo, Avena fatua
# Excerpt: as §1
# [18] = tested on: cocklebur; assay type: in vivo, Xanthium pensylvanicum
# Excerpt: as §1
# [19] = tested on: giant foxtail; assay type: in vivo, Setaria faberii
# Excerpt: as §1
# [20] = tested on: corn; assay type: in vivo, Zea mays
# Excerpt: as §1
# [21] = tested on: morningglory; assay type: in vivo, Ipomoea hederacea
# Excerpt: as §1
# [22] = tested on: blackgrass; assay type: in vivo, Alopecurus myosuroides
# Excerpt: as §1
# [23] = tested on: rice; assay type: in vivo, Oryza sativa
# Excerpt: as §1
smiles,measurement,setting,value
C=CCOc1cc(-c2nn3c(c2Br)CCCC3)c(F)cc1Cl [Compound 37],"Plant response rating, Sugar beet","[1]; POSTEMERGENCE, Rate 50 g/ha",10
same,"Plant response rating, Sugar beet","[1]; PREEMERGENCE, Rate 50 g/ha",9
same,"Plant response rating, Sugar beet","[1]; Rate 200 g/ha, POSTEMERGENCE",10
same,"Plant response rating, Sugar beet","[1]; Rate 200 g/ha, PREEMERGENCE",9
same,"Plant response rating, Bedstraw","[2]; POSTEMERGENCE, Rate 50 g/ha",7
same,"Plant response rating, Bedstraw","[2]; POSTEMERGENCE, Rate 200 g/ha",10
same,"Plant response rating, Bedstraw","[2]; Rate 200 g/ha, PREEMERGENCE",8
same,"Plant response rating, Chickweed","[3]; POSTEMERGENCE, Rate 50 g/ha",5
same,"Plant response rating, Chickweed","[3]; POSTEMERGENCE, Rate 200 g/ha",10
same,"Plant response rating, Chickweed","[3]; Rate 200 g/ha, PREEMERGENCE",9
same,"Plant response rating, Wild buckwheat","[4]; POSTEMERGENCE, Rate 50 g/ha",9
same,"Plant response rating, Wild buckwheat","[4]; PREEMERGENCE, Rate 50 g/ha",9
same,"Plant response rating, Wild buckwheat","[4]; Rate 200 g/ha, POSTEMERGENCE",10
same,"Plant response rating, Wild buckwheat","[4]; Rate 200 g/ha, PREEMERGENCE",10
same,"Plant response rating, Barnyardgrass","[5]; POSTEMERGENCE, Rate 50 g/ha",5
same,"Plant response rating, Barnyardgrass","[5]; POSTEMERGENCE, Rate 200 g/ha",7
same,"Plant response rating, Barnyardgrass","[5]; PREEMERGENCE, Rate 50 g/ha",0
same,"Plant response rating, Barnyardgrass","[5]; Rate 200 g/ha, PREEMERGENCE",4
same,"Plant response rating, Lambsquarter","[6]; POSTEMERGENCE, Rate 50 g/ha",9
same,"Plant response rating, Lambsquarter","[6]; PREEMERGENCE, Rate 50 g/ha",10
same,"Plant response rating, Lambsquarter","[6]; Rate 200 g/ha, POSTEMERGENCE",10
same,"Plant response rating, Lambsquarter","[6]; Rate 200 g/ha, PREEMERGENCE",10
same,"Plant response rating, Crabgrass","[7]; POSTEMERGENCE, Rate 50 g/ha",4
same,"Plant response rating, Crabgrass","[7]; POSTEMERGENCE, Rate 200 g/ha",5
same,"Plant response rating, Crabgrass","[7]; PREEMERGENCE, Rate 50 g/ha",0
same,"Plant response rating, Crabgrass","[7]; Rate 200 g/ha, PREEMERGENCE",7
same,"Plant response rating, Velvetleaf","[8]; POSTEMERGENCE, Rate 50 g/ha",10
same,"Plant response rating, Velvetleaf","[8]; PREEMERGENCE, Rate 50 g/ha",1
same,"Plant response rating, Velvetleaf","[8]; Rate 200 g/ha, POSTEMERGENCE",10
same,"Plant response rating, Velvetleaf","[8]; Rate 200 g/ha, PREEMERGENCE",9
same,"Plant response rating, Soybean","[9]; POSTEMERGENCE, Rate 50 g/ha",5
same,"Plant response rating, Soybean","[9]; PREEMERGENCE, Rate 50 g/ha",0
same,"Plant response rating, Soybean","[9]; Rate 200 g/ha, POSTEMERGENCE",6
same,"Plant response rating, Soybean","[9]; Rate 200 g/ha, PREEMERGENCE",4
same,"Plant response rating, Cotton","[10]; POSTEMERGENCE, Rate 50 g/ha",10
same,"Plant response rating, Cotton","[10]; POSTEMERGENCE, Rate 200 g/ha",10
same,"Plant response rating, Cotton","[10]; PREEMERGENCE, Rate 50 g/ha",0
same,"Plant response rating, Cotton","[10]; Rate 200 g/ha, PREEMERGENCE",7
same,"Plant response rating, Barley","[11]; POSTEMERGENCE, Rate 50 g/ha",4
same,"Plant response rating, Barley","[11]; POSTEMERGENCE, Rate 200 g/ha",6
same,"Plant response rating, Barley","[11]; PREEMERGENCE, Rate 50 g/ha",0
same,"Plant response rating, Barley","[11]; Rate 200 g/ha, PREEMERGENCE",0
same,"Plant response rating, Sorghum","[12]; POSTEMERGENCE, Rate 50 g/ha",5
same,"Plant response rating, Sorghum","[12]; PREEMERGENCE, Rate 50 g/ha",0
same,"Plant response rating, Sorghum","[12]; Rate 200 g/ha, POSTEMERGENCE",6
same,"Plant response rating, Sorghum","[12]; Rate 200 g/ha, PREEMERGENCE",1
same,"Plant response rating, Cheatgrass","[13]; POSTEMERGENCE, Rate 50 g/ha",4
same,"Plant response rating, Cheatgrass","[13]; POSTEMERGENCE, Rate 200 g/ha",7
same,"Plant response rating, Cheatgrass","[13]; PREEMERGENCE, Rate 50 g/ha",5
same,"Plant response rating, Cheatgrass","[13]; Rate 200 g/ha, PREEMERGENCE",6
same,"Plant response rating, Rape","[14]; POSTEMERGENCE, Rate 50 g/ha",9
same,"Plant response rating, Rape","[14]; Rate 200 g/ha, POSTEMERGENCE",10
same,"Plant response rating, Rape","[14]; Rate 200 g/ha, PREEMERGENCE",6
same,"Plant response rating, Wheat","[15]; POSTEMERGENCE, Rate 50 g/ha",4
same,"Plant response rating, Wheat","[15]; PREEMERGENCE, Rate 50 g/ha",0
same,"Plant response rating, Wheat","[15]; Rate 200 g/ha, POSTEMERGENCE",5
same,"Plant response rating, Wheat","[15]; Rate 200 g/ha, PREEMERGENCE",3
same,"Plant response rating, Nutsedge","[16]; POSTEMERGENCE, Rate 50 g/ha",2
same,"Plant response rating, Nutsedge","[16]; PREEMERGENCE, Rate 50 g/ha",0
same,"Plant response rating, Nutsedge","[16]; Rate 200 g/ha, POSTEMERGENCE",4
same,"Plant response rating, Nutsedge","[16]; Rate 200 g/ha, PREEMERGENCE",0
same,"Plant response rating, Wild oat","[17]; POSTEMERGENCE, Rate 50 g/ha",4
same,"Plant response rating, Wild oat","[17]; PREEMERGENCE, Rate 50 g/ha",2
same,"Plant response rating, Wild oat","[17]; Rate 200 g/ha, POSTEMERGENCE",6
same,"Plant response rating, Cocklebur","[18]; POSTEMERGENCE, Rate 50 g/ha",7
same,"Plant response rating, Cocklebur","[18]; POSTEMERGENCE, Rate 200 g/ha",10
same,"Plant response rating, Cocklebur","[18]; PREEMERGENCE, Rate 50 g/ha",0
same,"Plant response rating, Cocklebur","[18]; Rate 200 g/ha, PREEMERGENCE",0
same,"Plant response rating, Giant foxtail","[19]; POSTEMERGENCE, Rate 50 g/ha",5
same,"Plant response rating, Giant foxtail","[19]; PREEMERGENCE, Rate 50 g/ha",2
same,"Plant response rating, Giant foxtail","[19]; Rate 200 g/ha, POSTEMERGENCE",6
same,"Plant response rating, Giant foxtail","[19]; Rate 200 g/ha, PREEMERGENCE",5
same,"Plant response rating, Corn","[20]; POSTEMERGENCE, Rate 50 g/ha",6
same,"Plant response rating, Corn","[20]; POSTEMERGENCE, Rate 200 g/ha",8
same,"Plant response rating, Corn","[20]; PREEMERGENCE, Rate 50 g/ha",0
same,"Plant response rating, Corn","[20]; Rate 200 g/ha, PREEMERGENCE",3
same,"Plant response rating, Morningglory","[21]; POSTEMERGENCE, Rate 50 g/ha",7
same,"Plant response rating, Morningglory","[21]; PREEMERGENCE, Rate 50 g/ha",0
same,"Plant response rating, Morningglory","[21]; Rate 200 g/ha, POSTEMERGENCE",8
same,"Plant response rating, Morningglory","[21]; Rate 200 g/ha, PREEMERGENCE",1
same,"Plant response rating, Blackgrass","[22]; POSTEMERGENCE, Rate 50 g/ha",4
same,"Plant response rating, Blackgrass","[22]; POSTEMERGENCE, Rate 200 g/ha",7
same,"Plant response rating, Blackgrass","[22]; PREEMERGENCE, Rate 50 g/ha",0
same,"Plant response rating, Blackgrass","[22]; Rate 200 g/ha, PREEMERGENCE",6
same,"Plant response rating, Rice","[23]; POSTEMERGENCE, Rate 50 g/ha",5
same,"Plant response rating, Rice","[23]; PREEMERGENCE, Rate 50 g/ha",0
same,"Plant response rating, Rice","[23]; Rate 200 g/ha, POSTEMERGENCE",6
same,"Plant response rating, Rice","[23]; Rate 200 g/ha, PREEMERGENCE",0

# From patent US6358885B1, “Substituted phenylheterocyclic herbicides” (Mississippi State University, priority 1992, dated 2002)
